Measured values taken from patent publication US9796711B2, “Substituted pyrazolo[3,4-b]pyridin-6-carboxylic acids and method of use” (AbbVie S.àr.l., priority 2015, dated 2017).
pEC50: −log10 of the molar value.

Tests used:
[1] = molecular target: T1, ΔF508-CFTR (Homo sapiens, UniProt P13569, DEL508-508); assay: CFTR cell surface levels using HRP-tagged ΔF508-CFTR expressing CFBE cells, in the presence of a co-corrector; assay type: cell-based; conditions: HRP-tagged ΔF508-CFTR expressing CFBE cells, in the presence of 3 μM co-corrector; for pEC50: read-out: EC50
T1 construct: host or cells: CFBE41o-, doxycycline-inducible
Procedure, shortened: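 Cells were seeded with 0.5 μg/mL doxycycline and held 68 h at 37 °C. Test compounds plus 3 μM co-corrector (final 0.1% DMSO) were then added for 20 h at 33 °C. Washed cells received HRP substrate, and luminescence was normalized between DMSO and 3 μM co-corrector controls.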

[2] = molecular target: T1, ΔF508-CFTR; assay: CFTR cell surface levels using HRP-tagged ΔF508-CFTR expressing CFBE cells, intrinsic corrector capacity; assay type: cell-based; conditions: for pEC50: read-out: EC50
Procedure, shortened: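 Here the cells express ΔF508-CFTR with horseradish peroxidase inserted in extracellular loop 4, so only rescued channel at the surface gives luminescent signal. Compounds act on their own, 20 h at the reduced temperature of 33 °C; values are percent activity relative to DMSO and a 3 μM corrector.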

[3] = HRP-tagged ΔF508-CFTR CFBE41o- cells, compounds alone (intrinsic corrector capacity), 20 hours at 33° C., positive control 3 μM corrector
[4] = HRP-tagged ΔF508-CFTR CFBE41o- cells, compounds alone (intrinsic corrector capacity), 20 hours at 33° C.
[5] = HRP-tagged ΔF508-CFTR expressing CFBE cells, intrinsic corrector capacity (no co-corrector), 33° C., 20 hours

T1 sequence (P13569 with tags, fused parts or gaps DEL508-508): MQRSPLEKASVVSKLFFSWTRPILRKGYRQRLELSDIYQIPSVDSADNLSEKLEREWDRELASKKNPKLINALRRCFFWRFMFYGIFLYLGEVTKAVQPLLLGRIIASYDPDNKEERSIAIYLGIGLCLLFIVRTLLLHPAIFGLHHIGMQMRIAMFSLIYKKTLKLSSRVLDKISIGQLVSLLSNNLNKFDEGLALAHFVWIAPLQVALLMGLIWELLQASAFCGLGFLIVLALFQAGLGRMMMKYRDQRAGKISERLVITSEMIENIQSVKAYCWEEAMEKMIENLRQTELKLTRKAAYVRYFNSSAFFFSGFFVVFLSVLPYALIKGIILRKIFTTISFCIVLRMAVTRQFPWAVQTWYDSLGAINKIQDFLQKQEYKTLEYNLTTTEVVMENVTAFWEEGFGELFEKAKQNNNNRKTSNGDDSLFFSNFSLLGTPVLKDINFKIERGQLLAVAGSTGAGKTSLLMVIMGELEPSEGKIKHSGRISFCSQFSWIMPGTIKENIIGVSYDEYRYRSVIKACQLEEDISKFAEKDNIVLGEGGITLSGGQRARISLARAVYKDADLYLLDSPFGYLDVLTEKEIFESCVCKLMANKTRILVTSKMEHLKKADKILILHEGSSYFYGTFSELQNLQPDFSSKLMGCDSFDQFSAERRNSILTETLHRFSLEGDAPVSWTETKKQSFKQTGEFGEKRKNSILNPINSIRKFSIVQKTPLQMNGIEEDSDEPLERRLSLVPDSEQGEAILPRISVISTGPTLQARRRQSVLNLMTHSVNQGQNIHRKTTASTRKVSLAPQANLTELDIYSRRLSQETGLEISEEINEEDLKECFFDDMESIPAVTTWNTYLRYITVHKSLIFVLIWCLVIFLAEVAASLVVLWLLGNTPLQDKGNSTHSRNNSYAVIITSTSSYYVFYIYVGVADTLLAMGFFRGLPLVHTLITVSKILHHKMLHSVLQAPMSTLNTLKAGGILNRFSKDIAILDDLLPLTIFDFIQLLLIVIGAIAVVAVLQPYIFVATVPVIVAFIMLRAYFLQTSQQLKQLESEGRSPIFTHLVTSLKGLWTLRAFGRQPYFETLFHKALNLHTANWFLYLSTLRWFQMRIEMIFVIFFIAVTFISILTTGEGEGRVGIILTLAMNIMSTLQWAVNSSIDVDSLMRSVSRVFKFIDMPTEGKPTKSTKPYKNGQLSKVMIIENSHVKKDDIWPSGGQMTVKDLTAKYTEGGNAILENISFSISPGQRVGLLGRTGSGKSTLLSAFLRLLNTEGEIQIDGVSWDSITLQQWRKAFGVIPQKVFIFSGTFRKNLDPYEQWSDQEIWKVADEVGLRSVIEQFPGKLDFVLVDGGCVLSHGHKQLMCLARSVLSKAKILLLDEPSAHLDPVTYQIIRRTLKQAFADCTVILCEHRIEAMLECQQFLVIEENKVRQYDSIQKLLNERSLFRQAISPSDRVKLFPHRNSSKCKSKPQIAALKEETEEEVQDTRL

## Cc1nn(-c2ccccc2)c2nc(C(=O)O)cc(-c3ccc(N4CC(N(C)C)C4)cc3)c12 [compound 72]
[1]
  % Activation: 308.1%
  pEC50: 5.48
[2]; [3]
  % Activation: 91.87%
[2]; [4]
  pEC50: 5.65

## COCCCN1CCN(c2cc(C(=O)O)nc3c2c(C)nn3-c2ccccc2)CC1 [compound 321, 4-[4-(3-methoxypropyl)piperazin-1-yl]-3-methyl-1-phenyl-1H-pyrazolo[3,4-b]pyridine-6-carboxylic acid]
[1]
  % Activation: 196.85%
  pEC50: 5.60
[2]; [3]
  % Activation: 39.85%
[2]; [4]
  pEC50: 5.60

## Cc1nn(-c2ccccc2)c2nc(C(=O)O)cc(OCC3(CF)CC3)c12 [compound 387, 4-{[1-(fluoromethyl)cyclopropyl]methoxy}-3-methyl-1-phenyl-1H-pyrazolo[3,4-b]pyridine-6-carboxylic acid]
[1]
  % Activation: 224.5%
  pEC50: 5.78
[2]; [3]
  % Activation: 65.365%
[2]; [4]
  pEC50: 5.78

## CC(C)c1nn(-c2cccc(N3CCOCC3)c2)c2nc(C(=O)O)cc(-c3cnc(N(C)C4CCOCC4)nc3)c12 [compound 231, 4-{2-[methyl(oxan-4-yl)amino]pyrimidin-5-yl}-1-[3-(morpholin-4-yl)phenyl]-3-(propan-2-yl)-1H-pyrazolo[3,4-b]pyridine-6-carboxylic acid]
[1]
  % Activation: 625.45%
  pEC50: 6.24
[2]; [3]
  % Activation: 419%
[2]; [4]
  pEC50: 6.14

## CS(=O)(=O)C1(COc2cc(C(=O)O)nc3c2c(C2CCC2)nn3-c2ccccc2)CCC1 [compound 632, 3-cyclobutyl-4-{[1-(methanesulfonyl)cyclobutyl]methoxy}-1-phenyl-1H-pyrazolo[3,4-b]pyridine-6-carboxylic acid]
[1]
  % Activation: 129.55%
  pEC50: < 5.00
[2]; [5]
  % Activation: 18.94%
  pEC50: < 5.00

## COC1CCN(c2cc(C(=O)O)nc3c2c(C(C)C)nn3C2CCCCC2)CC1 [compound 264, 1-cyclohexyl-4-(4-methoxypiperidin-1-yl)-3-(propan-2-yl)-1H-pyrazolo[3,4-b]pyridine-6-carboxylic acid]
[1]
  % Activation: 428.47%
  pEC50: 6.33
[2]; [3]
  % Activation: 213.88%
[2]; [4]
  pEC50: 6.13

## CC(C)c1nn(-c2cccc(N3CCC(F)C3)c2)c2nc(C(=O)O)cc(-c3ccc(N4CCOCC4)cc3)c12 (stereo not shown) [compound 165, 1-[3-(3-fluoropyrrolidin-1-yl)phenyl]-4-[4-(morpholin-4-yl)phenyl]-3-(propan-2-yl)-1H-pyrazolo[3,4-b]pyridine-6-carboxylic acid]
[1]
  % Activation: 533.35%
  pEC50: 6.29
[2]; [3]
  % Activation: 350.4%
[2]; [4]
  pEC50: 6.10

## O=C(O)c1cc(N2CCC(CN3CC4CC4C3)CC2)c2c(C3CCC3)nn(-c3ccccc3)c2n1 (stereo not shown) [compound 844, 4-{4-[(3-azabicyclo[3.1.0]hexan-3-yl)methyl]piperidin-1-yl}-3-cyclobutyl-1-phenyl-1H-pyrazolo[3,4-b]pyridine-6-carboxylic acid]
[1]
  % Activation: 429.2%
  pEC50: 6.69
[2]; [5]
  % Activation: 184.9%
  pEC50: 6.68

## CC(C)c1nn(-c2ccc(F)cc2)c2nc(C(=O)O)cc(N3CCCN(C4CCC4)CC3)c12 [compound 767, 4-(4-cyclobutyl-1,4-diazepan-1-yl)-1-(4-fluorophenyl)-3-(propan-2-yl)-1H-pyrazolo[3,4-b]pyridine-6-carboxylic acid]
[1]
  % Activation: 210.1%
  pEC50: 5.78
[2]; [5]
  % Activation: 59.96%
  pEC50: 5.78

## Cc1nn(-c2ccccc2)c2nc(C(=O)O)cc(O[C@H]3C[C@@H](N(C)C)C3)c12 [compound 340, 4-{[cis-3-(dimethylamino)cyclobutyl]oxy}-3-methyl-1-phenyl-1H-pyrazolo[3,4-b]pyridine-6-carboxylic acid]
[1]
  % Activation: 146%
  pEC50: 5.38
[2]; [3]
  % Activation: 18.86%
[2]; [4]
  pEC50: 5.12
